Source: ChEMBL document CHEMBL1201862, “PubChem BioAssay data set” (2004)
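Briefly, cells in 96-well plates were exposed to five compound concentrations for 48 h, and endpoints were estimated by linear interpolation. GI50: concentration for 50% inhibition of growth.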 Calls of active or inactive are those of the source. No stated cut-off is given here; in the data, active = GI50 up to about 1.1 µM and inactive = higher.

Key:
Assay in all cases: NCI anticancer screen, dose series, 48 h
786-0 = tested on: 786-0
CAKI-1 = tested on: CAKI-1
CCRF-CEM = tested on: CCRF-CEM
IGROV-1 = tested on: IGROV-1
M14 = tested on: M14
OVCAR-3 = tested on: OVCAR-3
OVCAR-5 = tested on: OVCAR-5
SF-295 = tested on: SF-295
SF-539 = tested on: SF-539
SK-OV-3 = tested on: SK-OV-3
SNB-75 = tested on: SNB-75
SW-620 = tested on: SW-620
U-251 = tested on: U-251
UACC-257 = tested on: UACC-257
NCI-H226 = tested on: NCI-H226
NCI-H522 = tested on: NCI-H522
RXF 393 = tested on: RXF 393
SNB-19 = tested on: SNB-19

Measured: GI50

COc1ccc2c(c1)C1(C=N2)CCN(C(C)=O)CC1
inactive: 786-0 > 100 µM | CAKI-1 > 100 µM | CCRF-CEM > 100 µM | IGROV-1 > 100 µM | M14 > 100 µM | OVCAR-3 > 100 µM | OVCAR-5 > 100 µM | SF-295 > 100 µM | SF-539 > 100 µM | SK-OV-3 > 100 µM | SNB-75 41.1 µM | SW-620 > 100 µM | U-251 > 100 µM | UACC-257 > 100 µM

Cc1cc(NS(=O)(=O)c2ccc(NC(=O)c3ccc(Cl)c4c(Nc5ccc(S(N)(=O)=O)cc5)c5ccccc5nc34)cc2)no1
inactive: 786-0 18.3 µM | CAKI-1 21.1 µM | IGROV-1 21.2 µM | M14 26.9 µM | NCI-H226 20.3 µM | NCI-H522 11 µM | OVCAR-3 20 µM | OVCAR-5 24.5 µM | RXF 393 16.8 µM | SF-295 25.1 µM | SF-539 17.3 µM | SK-OV-3 34.8 µM | SNB-19 14.7 µM | SNB-75 20.3 µM | SW-620 17.4 µM | U-251 11.5 µM | UACC-257 24 µM

O=C(CC1(O)C(=O)Nc2c(Cl)cc(Cl)cc21)c1ccccc1 (stereo unspecified)
inactive: 786-0 > 100 µM | CAKI-1 > 100 µM | IGROV-1 > 100 µM | M14 > 100 µM | NCI-H226 > 100 µM | NCI-H522 55.1 µM | OVCAR-3 > 100 µM | OVCAR-5 > 100 µM | RXF 393 > 100 µM | SF-295 52.6 µM | SF-539 > 100 µM | SK-OV-3 > 100 µM | SNB-19 > 100 µM | SNB-75 38.6 µM | SW-620 40.9 µM | UACC-257 57 µM

CC(=O)Nc1ccccc1-c1cnc2ccccc2n1
inactive: 786-0 > 100 µM | CAKI-1 > 100 µM | CCRF-CEM > 100 µM | IGROV-1 > 100 µM | M14 > 100 µM | NCI-H226 > 100 µM | NCI-H522 > 100 µM | OVCAR-3 > 100 µM | OVCAR-5 > 100 µM | SF-295 > 100 µM | SF-539 > 100 µM | SK-OV-3 > 100 µM | SNB-19 > 100 µM | SNB-75 > 100 µM | SW-620 > 100 µM | U-251 > 100 µM | UACC-257 > 100 µM

COc1cc(Br)c(CC2(C#N)c3ccccc3C3C(N2C(=O)c2ccccc2)C3(Cl)Cl)cc1OC (stereo unspecified)
inactive: 786-0 > 65.5 µM | CCRF-CEM > 65.5 µM | IGROV-1 > 65.5 µM | M14 42.4 µM | NCI-H226 > 65.5 µM | NCI-H522 3.52 µM | OVCAR-3 15.1 µM | OVCAR-5 > 65.5 µM | RXF 393 > 65.5 µM | SF-539 48 µM | SK-OV-3 > 65.5 µM | SNB-19 > 65.5 µM | SNB-75 > 65.5 µM | SW-620 > 65.5 µM | U-251 39.4 µM | UACC-257 15.8 µM

Cc1nc(-c2nc(C)c(C(=O)NN(C)C)s2)sc1C(=O)NN(C)C
inactive: 786-0 30.7 µM | CAKI-1 > 100 µM | CCRF-CEM 31.2 µM | IGROV-1 > 100 µM | M14 > 100 µM | NCI-H226 > 100 µM | NCI-H522 34.6 µM | OVCAR-3 > 100 µM | OVCAR-5 > 100 µM | SF-295 > 100 µM | SF-539 > 100 µM | SK-OV-3 > 100 µM | SNB-19 > 100 µM | SNB-75 60.3 µM | U-251 > 100 µM | UACC-257 > 100 µM

O=c1/c(=C/c2ccccc2F)sc2nc3ccccc3n12
inactive: 786-0 > 100 µM | CAKI-1 > 100 µM | CCRF-CEM > 100 µM | IGROV-1 > 100 µM | M14 > 100 µM | NCI-H226 > 100 µM | NCI-H522 92.7 µM | OVCAR-3 > 100 µM | OVCAR-5 > 100 µM | RXF 393 > 100 µM | SF-295 > 100 µM | SF-539 74.3 µM | SNB-19 > 100 µM | SNB-75 57.4 µM | SW-620 > 100 µM | U-251 38.7 µM | UACC-257 > 100 µM

C=CCNC(=S)N1CC(C)C(=O)Nc2cc(Cl)ccc21 (stereo unspecified)
inactive: 786-0 > 100 µM | CAKI-1 > 100 µM | IGROV-1 > 100 µM | M14 > 100 µM | NCI-H226 54.2 µM | NCI-H522 > 100 µM | OVCAR-5 > 100 µM | RXF 393 > 100 µM | SF-295 > 100 µM | SF-539 76 µM | SK-OV-3 > 100 µM | SNB-19 > 100 µM | SNB-75 > 100 µM | U-251 > 100 µM | UACC-257 > 100 µM

Cc1c(C(=O)CSc2nc3ccccc3[nH]2)c(=O)n(-c2ccccc2)n1C
inactive: 786-0 > 100 µM | CAKI-1 > 100 µM | CCRF-CEM > 100 µM | IGROV-1 > 100 µM | M14 > 100 µM | NCI-H226 > 100 µM | NCI-H522 > 100 µM | OVCAR-3 41.1 µM | OVCAR-5 > 100 µM | SF-295 > 100 µM | SF-539 > 100 µM | SK-OV-3 > 100 µM | SNB-19 > 100 µM | SNB-75 > 100 µM | SW-620 > 100 µM | U-251 > 100 µM | UACC-257 > 100 µM

c1ccc2[nH]c(-c3nc4ccccc4o3)nc2c1
inactive: 786-0 > 100 µM | CCRF-CEM > 100 µM | IGROV-1 46.5 µM | M14 > 100 µM | NCI-H226 86.3 µM | NCI-H522 35.1 µM | OVCAR-3 > 100 µM | OVCAR-5 > 100 µM | SF-295 > 100 µM | SF-539 > 100 µM | SK-OV-3 > 100 µM | SNB-75 > 100 µM | U-251 > 100 µM | UACC-257 > 100 µM

Cc1c(/C=N/NC(=O)c2ccccc2)c(=O)n(-c2ccccc2)n1C
inactive: 786-0 > 100 µM | CCRF-CEM > 100 µM | IGROV-1 > 100 µM | M14 > 100 µM | NCI-H226 > 100 µM | NCI-H522 > 100 µM | OVCAR-3 > 100 µM | RXF 393 > 100 µM | SF-295 > 100 µM | SF-539 > 100 µM | SK-OV-3 > 100 µM | SNB-19 > 100 µM | SNB-75 > 100 µM | SW-620 > 100 µM | U-251 > 100 µM | UACC-257 > 100 µM

CCc1cc(Cc2ccc(C)c(NC(=O)C(=O)C3C(=O)NC(=O)NC3=O)c2CC)cc(C)c1NC(=O)C(=O)C1C(=O)NC(=O)NC1=O
inactive: 786-0 > 100 µM | CAKI-1 41.8 µM | CCRF-CEM > 100 µM | IGROV-1 > 100 µM | M14 > 100 µM | NCI-H522 > 100 µM | OVCAR-3 > 100 µM | OVCAR-5 > 100 µM | RXF 393 > 100 µM | SF-539 > 100 µM | SK-OV-3 > 100 µM | SNB-19 > 100 µM | SNB-75 24.6 µM | SW-620 > 100 µM | U-251 > 100 µM | UACC-257 > 100 µM
